In general, IC50 refers to the concentration that gives 50% inhibition.

This test deals with T1, P2Y12 receptor (Homo sapiens, UniProt Q9H244).
T1 construct: expressed in transfected cells; host or cells: CHO cells (membrane preparation)
The experiment in a line: Functional inhibition of 2-Me-S-ADP induced P2Y12 signalling (35S-GTPγS binding, cell membranes). In kind it is biochemical. To be noted: 35S-GTPγS assay, membranes, EC80 concentration of 2-methyl-thio-adenosine diphosphate, 30° C. for 45 min; read-out: GTPγS (IC50 μM). The gist of the method:
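Membranes (5 μg) from P2Y12-transfected CHO cells in pH 7.4 HEPES buffer with 10 μM GDP and saponin were stimulated with an EC80 of 2-methyl-thio-ADP plus compound and ^35S-GTPγS for 45 min at 30° C. Filter-retained ^35S-GTPγS was counted, normalised between agonist and no-agonist activity, and IC50 taken from a four-parameter fit.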
In general terms: Binding of GTPγS marks nucleotide exchange on a G protein.

T1 sequence (Q9H244 whole entry): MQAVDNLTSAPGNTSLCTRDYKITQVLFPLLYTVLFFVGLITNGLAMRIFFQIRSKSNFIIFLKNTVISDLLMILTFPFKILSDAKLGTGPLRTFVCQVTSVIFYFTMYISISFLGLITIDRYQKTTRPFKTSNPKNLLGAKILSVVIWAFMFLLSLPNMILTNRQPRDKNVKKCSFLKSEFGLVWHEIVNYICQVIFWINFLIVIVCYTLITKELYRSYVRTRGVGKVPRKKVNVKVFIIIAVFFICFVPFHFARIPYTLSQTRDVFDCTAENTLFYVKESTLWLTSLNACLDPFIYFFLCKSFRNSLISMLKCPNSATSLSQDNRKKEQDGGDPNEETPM

`CCOC(=O)c1cc(C#N)c(N2CCC(C(=O)NS(=O)(=O)Nc3ccc(F)cc3)CC2)nc1CN1CCCC1=O` [Example 77, Ethyl 5-cyano-6-[4-({[(4-fluorophenyl)amino]sulfonyl}carbamoyl)piperidin-1-yl]-2-[(2-oxopyrrolidin-1-yl)methyl]nicotinate]: the half-maximal inhibitory concentration (IC50) was 0.017 µM.
Regarding `CC(C)OC(=O)c1cc(C#N)c(N2CCC(C(=O)NS(=O)(=O)N(C)c3ccccc3)CC2)nc1CN1CCCC1=O` [Example 78, Isopropyl 5-cyano-6-[4-({[methyl(phenyl)amino]sulfonyl}carbamoyl)piperidin-1-yl]-2-[(2-oxopyrrolidin-1-yl)methyl]nicotinate], the IC50 is 0.021 µM.
In the case of `CC(C)OC(=O)c1cc(C#N)c(N2CCC(C(=O)NS(=O)(=O)N(C)c3ccc(F)cc3)CC2)nc1CN1CCCC1=O` [Example 79, Isopropyl 5-cyano-6-[4-({[(4-fluorophenyl)(methyl)amino]sulfonyl}carbamoyl)piperidin-1-yl]-2-[(2-oxopyrrolidin-1′-yl)methyl]nicotinate] it was 0.014 µM; in that of `CC(C)OC(=O)c1cc(C#N)c(N2CCC(C(=O)NS(=O)(=O)Nc3ccc(F)cc3)CC2)nc1CN1CCCC1=O` [Example 80, Isopropyl 5-cyano-6-[4-({[(4-fluorophenyl)amino]sulfonyl}carbamoyl)piperidin-1-yl]-2-[(2-oxopyrrolidin-1-yl)methyl]nicotinate], 0.038 µM.
In the case of `CC(C)OC(=O)c1cc(C#N)c(N2CCC(C(=O)NS(=O)(=O)CC3CCC3)CC2)nc1CN1CCCC1=O` [Example 81, Isopropyl 5-cyano-6-(4-{[(cyclobutylmethyl)sulfonyl]carbamoyl}piperidin-1-yl)-2-[(2-oxopyrrolidin-1-yl)methyl]nicotinate] it was 0.094 µM; in that of `CC(C)OC(=O)c1cc(C#N)c(N2CCC(C(=O)NS(=O)(=O)CC3CCCCC3)CC2)nc1CN1CCCC1=O` [Example 82, Isopropyl 5-cyano-6-(4-{[(cyclohexylmethyl)sulfonyl]carbamoyl}piperidin-1-yl)-2-[(2-oxopyrrolidin-1-yl)methyl]nicotinate], 0.028 µM.
In the case of `COc1ccc(CS(=O)(=O)NC(=O)C2CCN(c3nc(CN4CCCC4=O)c(C(=O)OC(C)C)cc3C#N)CC2)cc1` [Example 83, Isopropyl 5-cyano-6-(4-{[(4-methoxybenzyl)sulfonyl]carbamoyl}piperidin-1-yl)-2-[(2-oxopyrrolidin-1-yl)methyl]nicotinate] it was 0.016 µM; in that of `CCOC(=O)c1cc(Br)c(N2CCC(C(=O)NS(=O)(=O)Cc3ccccc3)CC2)nc1CN1CCCC1=O` [Example 84, Ethyl 6-{4-[(benzylsulfonyl)carbamoyl]piperidin-1-yl}-5-bromo-2-[(2-oxopyrrolidin-1-yl)methyl]nicotinate], 0.031 µM.
As to `CCOC(=O)c1cc(Cl)c(N2CCC(C(=O)NS(=O)(=O)Cc3ccccc3)CC2)nc1CN1CCCC1=O` [Example 85, Ethyl 6-{4-[(benzylsulfonyl)carbamoyl]piperidin-1-yl}-5-chloro-2-[(2-oxopyrrolidin-1-yl)methyl]nicotinate], the IC50 was found to be 0.041 µM.
For `CCOC(=O)c1ccc(N2CCC(C(=O)NS(=O)(=O)Cc3ccccc3)CC2)nc1CN1CCCC1=O` [Example 86, Ethyl 6-{4-[(benzylsulfonyl)carbamoyl]piperidin-1-yl}-2-[(2-oxopyrrolidin-1-yl)methyl]nicotinate] the value was 0.103 µM; for `CCOC(=O)c1cc(Cl)c(N2CCC(C(=O)NS(=O)(=O)Cc3ccc(C)cc3)CC2)nc1CN1CCCC1=O` [Example 87, Ethyl 5-chloro-6-(4-{[(4-methylbenzyl)sulfonyl]carbamoyl}piperidin-1-yl)-2-[(2-oxopyrrolidin-1-yl)methyl]nicotinate], 0.037 µM.
In the case of `CCOC(=O)c1cc(Cl)c(N2CCC(C(=O)NS(=O)(=O)Cc3ccc(OC)cc3)CC2)nc1CN1CCCC1=O` [Example 88, Ethyl 5-chloro-6-(4-{[(4-methoxybenzyl)sulfonyl]carbamoyl}piperidin-1-yl)-2-[(2-oxopyrrolidin-1-yl)methyl]nicotinate] it was 0.081 µM; in that of `CCOC(=O)c1cc(Cl)c(N2CCC(C(=O)NS(=O)(=O)Cc3ccc(F)cc3F)CC2)nc1CN1CCCC1=O` [Example 89, Ethyl 5-chloro-6-(4-{[(2,4-difluorobenzyl)sulfonyl]carbamoyl}piperidin-1-yl)-2-[(2-oxopyrrolidin-1-yl)methyl]nicotinate], 0.033 µM.
In the case of `CCOC(=O)c1cc(C#N)c(N2CC(C(=O)NS(=O)(=O)Cc3ccccc3)C2)nc1CN1CCCC1=O` [Example 90, Ethyl 6-{3-[(benzylsulfonyl)carbamoyl]azetidin-1-yl}-5-cyano-2-[(2-oxopyrrolidin-1-yl)methyl]nicotinate], the IC50 came to 0.019 µM.
For `CCOC(=O)c1cc(Cl)c(N2CCC(C(=O)NS(=O)(=O)Nc3ccc(F)cc3)CC2)nc1CN1CCCC1=O` [Example 91, Ethyl 5-chloro-6-[4-({[(4-fluorophenyl)amino]sulfonyl}carbamoyl)piperidin-1-yl]-2-[(2-oxopyrrolidin-1-yl)methyl]nicotinate] the value was 0.145 µM; for `CCOC(=O)c1cc(Cl)c(N2CCC(C(=O)NS(=O)(=O)N(C)c3ccc(F)cc3)CC2)nc1CN1CCCC1=O` [Example 92, Ethyl 5-chloro-6-[4-({[(4-fluorophenyl)(methyl)amino]sulfonyl}carbamoyl)piperidin-1-yl]-2-[(2-oxopyrrolidin-1-yl)methyl]nicotinate], 0.077 µM; for `CCOC(=O)c1cc(Cl)c(N2CCC(C(=O)NS(=O)(=O)N(C)c3ccccc3)CC2)nc1CN1CCCC1=O` [Example 93, Ethyl 5-chloro-6-[4-({[methyl(phenyl)amino]sulfonyl}carbamoyl)piperidin-1-yl]-2-[(2-oxopyrrolidin-1-yl)methyl]nicotinate], 0.062 µM.
Regarding `CCOC(=O)c1cc(Cl)c(N2CCC(C(=O)NS(=O)(=O)CC3CCCCC3)CC2)nc1CN1CCCC1=O` [Example 94, Ethyl 5-chloro-6-(4-{[(cyclohexylmethyl)sulfonyl]carbamoyl}piperidin-1-yl)-2-[(2-oxopyrrolidin-1-yl)methyl]nicotinate], the IC50 was 0.194 µM.
For `CCCOC(=O)c1cc(Cl)c(N2CCC(C(=O)NS(=O)(=O)N(C)c3ccc(F)cc3)CC2)nc1CN1CCCC1=O` [Example 95, Propyl 5-chloro-6-[4-({[(4-fluorophenyl)(methyl)amino]sulfonyl}carbamoyl)piperidin-1-yl]-2-[(2-oxopyrrolidin-1-yl)methyl]nicotinate], the IC50 is 0.155 µM.
Consider `CC(C)OC(=O)c1cc(Cl)c(N2CCC(C(=O)NS(=O)(=O)Cc3ccccc3)CC2)nc1CN1CCCC1=O` [Example 96, Isopropyl 6-{4-[(benzylsulfonyl)carbamoyl]piperidin-1-yl}-5-chloro-2-[(2-oxopyrrolidin-1-yl)methyl]nicotinate], for which the IC50 was determined as 0.178 µM.
As for `CCSC(=O)c1cc(C#N)c(N2CCC(C(=O)NS(=O)(=O)CC3CCCC3)CC2)nc1CN1CCCC1=O` [Example 97, S-Ethyl 5-cyano-6-(4-{[(cyclopentylmethyl)sulfonyl]carbamoyl}piperidin-1-yl)-2-[(2-oxopyrrolidin-1-yl)methyl]pyridine-3-carbothioate], the half-maximal inhibitory concentration (IC50) was 1.22 µM.
As to `CCSC(=O)c1cc(C#N)c(N2CCC(C(=O)NS(=O)(=O)Cc3ccc(C)cc3)CC2)nc1CN1CCCC1=O` [Example 98, S-Ethyl 5-cyano-6-(4-{[(4-methylbenzyl)sulfonyl]carbamoyl}piperidin-1-yl)-2-[(2-oxopyrrolidin-1-yl)methyl]pyridine-3-carbothioate], the IC50 is 4.53 µM.
For `CC(C)OC(=O)c1cc(C#N)c(N2CCC(C(=O)NS(=O)(=O)Cc3ccc([Si](C)(C)C)cc3)CC2)nc1CN1CCCC1=O` [Example 99, Isopropyl 5-cyano-2-[(2-oxopyrrolidin-1-yl)methyl]-6-[4-({[4-(trimethylsilyl)benzyl]sulfonyl}carbamoyl)piperidin-1-yl]nicotinate] the value was 0.497 µM.
For `CCOC(=O)c1cc(C#N)c(N2CCC(C(=O)NS(=O)(=O)Cc3ccc([Si](C)(C)C)cc3)CC2)nc1CN1CCCC1=O` [Example 100, Ethyl 5-cyano-2-[(2-oxopyrrolidin-1-yl)methyl]-6-[4-({[4-(trimethylsilyl)benzyl]sulfonyl}carbamoyl)piperidin-1-yl]nicotinate] the value was 0.138 µM; for `CCOC(=O)c1cc(C#N)c(N2CCC(C(=O)NS(=O)(=O)Cc3ccc(SC(F)(F)F)cc3)CC2)nc1CN1CCCCC1=O` [Example 101, Ethyl 5-cyano-2-[(2-oxopiperidin-1-yl)methyl]-6-{4-[({4-[(trifluoromethyl)thio]benzyl}sulfonyl)carbamoyl]piperidin-1-yl}nicotinate], 0.166 µM.
For `CCOC(=O)c1cc(C#N)c(N2CCC(C(=O)NS(=O)(=O)Cc3ccc([Si](C)(C)C)cc3)CC2)nc1CN1CCCCC1=O` [Example 102, Ethyl 5-cyano-2-[(2-oxopiperidin-1-yl)methyl]-6-[4-({[4-(trimethylsilyl)benzyl]sulfonyl}carbamoyl)piperidin-1-yl]nicotinate] the value was 0.934 µM; for `CCOC(=O)c1cc(C#N)c(N2CCC(C(=O)NS(=O)(=O)Cc3ccc(C(C)(C)C)cc3)CC2)nc1CN1CCCCC1=O` [Example 103, Ethyl 6-(4-{[(4-tert-butylbenzyl)sulfonyl]carbamoyl}piperidin-1-yl)-5-cyano-2-[(2-oxopiperidin-1-yl)methyl]nicotinate], 0.376 µM.
In the case of `CCOC(=O)c1cc(Cl)c(N2CCC(C(=O)NS(=O)(=O)Cc3ccc(Cl)cc3)CC2)nc1SCCNC(C)=O` [Example 104, Ethyl 2-[(2-acetamidoethyl)thio]-5-chloro-6-(4-{[(4-chlorobenzyl)sulfonyl]carbamoyl}piperidin-1-yl)nicotinate], the IC50 came to 0.057 µM.

The values above are taken from patent US20080200448A1, “New Pyridine Analogues VIII 518” (ASTRAZENECA AB, priority 2007, published 2008).
